Measurements reported in patent US20080220056A1, “Treatment for liver disease” (UNIVERSITY OF SOUTHAMPTON, priority 2002, published 2008).

Key:
Type in all cases: cell-based
[1] = tested on: caspase 3 activity in rat hepatic stellate cells; assay: Caspase 3 (Ac-DEVD-pNA cleavage) activity in rat hepatic stellate cells; conditions: 1.5 μmol/L, three hours, versus DMSO control
Procedure: Hepatic stellate cells cultured in 100 mm diameter dishes (Greiner, Frickenhausen, Germany) were harvested and pelleted by centrifugation. The medium supernatant was discarded and the cell pellet was washed in 1 mL of ice-cooled phosphate buffered saline (PBS). Caspase 3 (DEVDase) activity was determined using a colorimetric CaspACE kit (Promega, Southampton, England) using the manufacturer's instructions.
Caspase 3 (Ac-DEVD-pNA cleavage) activity was then examined in control and gliotoxin-treated hepatic stellate cells. Culture activated rat hepatic stellate cells (14 days) in 100 mm diameter plates were treated with 0.05% (vol/vol) DMSO, 1.5 μmol/L gliotoxin, 20 μmol/L Z-VAD-FMK or 200 μmol/L chlorpromazine for three hours. The cells were then harvested for examination of caspase 3 activity as outlined in the materials and methods sections.

rat hepatocytes [2] = assay: Rat hepatocyte viability by attachment and trypan blue exclusion; conditions: 50 μmol/L gliotoxin, four hours
Procedure: Rat hepatocytes were isolated by collagenase perfusion essentially as previously described. (Harvey et al., Biochemical J., (1998) 331:273-281). Hepatocytes were cultured as outlined for hepatic stellate cells except that they were initially seeded onto collagen coated plates in William's medium E supplemented with 10% fetal calf serum and 1 μg/mL insulin for the first 2 hours.
Cells were treated with gliotoxin dissolved in DMSO vehicle (added to medium from a 2000-fold molar concentrated stock). Control cells received DMSO vehicle only (i.e., 0.05% vol/vol). All other additions to culture medium were made from concentrated stocks dissolved in DMSO or by direct addition to culture medium. Protein contents of wells were determined using the Lowry assay (Lowry et al., J. Biol. Chem., (1951)193: 265-275).
The effect of various compounds on cell viability and attachment was determined. Viability of rat hepatocytes as judged by attachment and 0.1% (wt/vol) trypan blue exclusion after four hours treatment with: […]

[3] = tested on: rat hepatic stellate cells; assay: Propidium iodide FACS analysis of DNA strand breaks in rat hepatic stellate cells; conditions: 1.5 μmol/L gliotoxin, two hours
Procedure: (§1) Hepatic stellate cells cultured in 35-mm diameter dishes (Greiner) were harvested, pelleted by centrifugation and DNA fragmentation determined as outlined elsewhere (Elsharkawy et al., Hepatology (1999) 30:761-769). Propidium Iodide Flow-Activated Cell Sorting Analysis Detached cells were pelleted by centrifugation, washed in PBS, and resuspended in HYPO buffer (0.1% wt/vol) Na3Citrate and 0.1% (wt/vol) Triton™ X-100 containing […] propidium iodide and incubated for 1 hour. The cells were then analyzed by fluorescence-activated cell sorter (FACS) with a Becton Dickinson (San Jose, Calif.) FACScan instrument using a 488 nm excitation wavelength with a band pass filter set at 530 nm. Attached cells were scraped in HYPO buffer after washing cells with PBS.
To characterize the extent and significance of apoptosis in response to gliotoxin, rat hepatic stellate cell DNA strand breaks were assessed by FACS analysis of propidium iodide stained cells. Culture-activated (14-day) rat hepatic stellate cells were treated with 0.05% (vol/vol) DMSO vehicle control or with 1.5 lμmol/L gliotoxin for two hours, harvested, and stained with propidium iodide as outlined in the materials and methods section.

rat hepatocytes [4] = assay: DNA laddering in rat hepatocytes; conditions: four hours; 50 μmol/L gliotoxin, 200 μmol/L chlorpromazine, 200 μmol/L methapyrilene, 10 ng/mL TNF-α with cycloheximide
Procedure: as §1
DNA laddering was also used to compare the effect of gliotoxin, chlorpromazine, methapyrilene and also the combination of TNF-α with cycloheximide on hepatocytes and hepatic stellate cells.

[5] = tested on: Fas and Fas ligand in human hepatic stellate cells; assay: Enzyme-linked immunosorbent assay for Fas and Fas ligand; conditions: TIMP-1 142.5 ng/ml, 18 hours, serum deprivation, versus BSA alone
Procedure: Human hepatic stellate cells were grown to confluence and exposed to BSA with and without TIMP-1. Cells and supernatants were harvested, and protein extracts were assayed for Fas and Fas ligand by commercial enzyme-linked immunosorbent assay following the manufacturer's instructions (Calbiochem). The quantities of Fas and Fas ligand were normalized to cell number by DNA quantification using the PicoGreen technique.
Experiments were next performed to determine whether TIMP-1 regulated Fas ligand cleavage in human hepatic stellate cells. Hepatic stellate cells were incubated for 18 hours in conditions of absolute serum deprivation with BSA or BSA with TIMP-1 (142.5 ng/ml). The cells were extracted, and supernatants were collected. After normalizing for cell number (by DNA concentration using the PicoGreen technique), these extracts were analyzed by enzyme-linked immunosorbent assay for Fas and Fas ligand as described under Materials and Methods. […] Supernatant Fas and Fas ligand protein levels were undetectable in all experimental conditions (data not shown, n 3).

[6] = tested on: human hepatic stellate cells; assay: Hepatic stellate cell apoptosis by acridine orange staining and counting (cycloheximide or serum deprivation), human cells; conditions: human hepatic stellate cells
Procedure: Human hepatic stellate cells were extracted from the margins of normal human liver resected for colonic metastatic disease as previously described (Iredale et al., Clin. Sci., (1995) 89: 75-81). Rat hepatic stellate cells were extracted from normal rat liver by Pronase and collagenase digestion and purified by centrifugal elutriation as described (Arthur et al., J. Clin. Invest., (1989) 84:1076-1085). Extracted hepatic stellate cells were cultured on plastic until they were activated to a myofibroblastic phenotype after 7 to 10 days. Human and rat hepatic stellate cells were used for experiments after activation in primary culture or before fourth passage. Cells were cultured in Dulbecco's modified Eagle's medium in the presence of 16% fetal calf serum and antibiotics.
Apoptosis of hepatic stellate cells was induced by absolute serum deprivation, cycloheximide treatment (Issa et al., Gut (2001) 48: S48-S57), or exposure to nerve growth factor as previously described (Trim et al., Am. J. Pathol., (2000) 156, 1235-1243). Hepatic stellate cells were cultured in 24-well tissue culture plates. […] Following a 4 hour incubation at 37° C., nuclear morphology was assessed by adding acridine orange to each well (final concentration 1 μg/ml) and observing the cells under blue fluorescence. The total number of apoptotic bodies was counted, and any apoptotic bodies floating in the supernatant were included by racking up the objective lens. The total number of cells per field was counted, and an apoptotic index was calculated. Each condition was performed in duplicate, and three high power fields were counted for each well. […] To examine for autocrine effects, hepatic stellate cells were incubated for 18 hours with azide-free polyclonal neutralizing antibodies to TIMP-1 and a nonimmune IgG control (Santa Cruz Biotechnology, Inc., Santa Cruz, Calif.), and responses were assessed by acridine orange staining and counting.
Apoptosis was assessed by acridine orange staining. […]

Molecule: CN1C(=O)[C@]23CC4=CC=C[C@H](O)[C@H]4N2C(=O)[C@@]1(CO)SS3 [gliotoxin]
- increase in caspase 3 activity [1]: 7.6 fold
- hepatocytes that do not exclude 0.1% (wt/vol) trypan blue (rat hepatocytes [2]): approximately 90%
- hepatocyte attachment to the substratum / membrane integrity (rat hepatocytes [2]; 10 ng/mL TNF-α with 10 μmol/L cycloheximide): significant reductions in cell attachment to the substratum
- propidium iodide nuclei fluorescence (DNA cleavage) [3]: broad low level of fluorescence
- cleavage of hepatocyte DNA to a nucleosomal ladder (rat hepatocytes [4]): only hepatocytes treated with TNF-α and cycloheximide cleaved their DNA to a nucleosomal ladder

Molecule: TIMP-1: recombinant tissue inhibitor of matrix metalloproteases 1 (Biogenesis)
- cellular Fas or Fas ligand protein levels [5]: had no effect on cellular Fas or Fas ligand protein levels
- apoptosis of human HSC (cycloheximide 4 h or serum deprivation 18 h) [6]: identical antiapoptotic effects
